Experimental data taken from patent EP0702683B1, “06-SUBSTITUTED GUANINE DERIVATIVES, A PROCESS FOR THEIR PREPARATION AND THEIR USE IN TREATING TUMOUR CELLS” (Cancer Research Technology Limited, priority 1993, dated 1994).
Entries after “also recorded” stand apart in the source; their conditions may differ. Like-named read-outs stand apart in the source and are kept apart here.

Experiments:
[1] = Stability of inactivators at 37°C (spectrophotometric half life); assay type: physicochemical
Method: Inactivators (10mM in DMSO) were diluted to 0.1mM in prewarmed degassed buffer I (1mM EDTA, 50mM Tris pH 8.3) or PBS (pH 7-7.2). […] Samples were immediately transferred to a CARY13 spectrophotometer (cuvette block held at 37°C) and scanned at an appropriate wavelength (according to the spectral properties of the compound) at 3-10 minute intervals for up to 80 hours. The results were expressed as percentage absorbance change versus time and T1/2 values (half life) extrapolated from this.

ATase [2] = biological target: T1, ATase (Homo sapiens, UniProt P16455); test: Inactivation of ATase activity in WiDr cells; assay type: cell-based; design: endogenous in cells; host or cells: Raji
T1 sequence (P16455 1-207): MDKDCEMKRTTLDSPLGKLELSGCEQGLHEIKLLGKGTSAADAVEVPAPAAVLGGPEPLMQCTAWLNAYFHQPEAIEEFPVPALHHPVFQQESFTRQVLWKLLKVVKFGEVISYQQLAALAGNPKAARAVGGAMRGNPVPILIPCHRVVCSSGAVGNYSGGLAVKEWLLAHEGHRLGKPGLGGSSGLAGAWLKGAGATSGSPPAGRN
Method: Mammalian cells were cultured under standard conditions. For example, Raji (a human lymphoblastoid cell line from a Burkitt's lymphoma) cells were grown in suspension culture in RPMI medium supplemented with 10% horse serum. A375M cells are human melanoma cells from which the xenografts described below were established following subcutaneous injection into nude mice: WiDr cells are a human colon carcinoma cell line: Hamster+120 cells are a mitozolomide-selected subline of a Chinese hamster lung fibroblast V79 cell line called RJKO: Yoshida cells are a rat carcinosarcoma cell line and YRbus is a busulphan resistant subline thereof: XP cells are an SV40-transformed fibroblast cell line originally from the skin of a Xeroderma pigmentosum patient, pHMGhAT2b cells are a clone of these cells that have been transfected with a mammalian cell expression vector containing the human ATase cDNA and pHMGla cells are a clone that have been transfected with the expression vector only (i.e. one not containing the human ATase cDNA). Cell pellets were resuspended in cold (4°C) buffer I containing 2 µg/ml leupeptin and sonicated for 10 seconds at 12 µ peak to peak distance. After cooling in ice, the cells were sonicated for a further 10 seconds at 18 µ. […]

ATase [3] = biological target: T1, ATase; test: In vitro ATase inactivation assay with purified recombinant human ATase; assay type: biochemical; design: made in house; details: for effectiveness in the in vitro ATase inactivation assay compared with BeG: Figure 1, in words
Method: The cDNA cloning and overexpression of the human ATase has been reported previously^23. Purification of the recombinant proteins was achieved either by affinity chromatography through a DNA-cellulose column as described by Wilkinson et al.,^25, 26, or by DEAE-cellulose ion-exchange chromatography. For the latter, the ATase protein was partially purified by ammonium sulphate precipitation (30 - 60%) and dialysed against 10 mM Tris-HCl pH 7.5, 1 mM DTT, 2 mM EDTA, 10% glycerol, before loading on a DEAF-cellulose column. The ATase was then eluted with a 0-0.1 M NaCl gradient.
Compounds to be tested were dissolved in DMSO to a final concentration of 10 mM and diluted just before use in buffer I containing 1 mg/ml bovine serum albumin (IBSA). Recombinant ATase was diluted in IBSA and titrated in order that the reaction be conducted under ATase, and not substrate, limiting conditions. In each assay, fixed amounts of ATase (60-75 fmol) were incubated with varying amounts of 0^6-benzylguanine, or test compound in a total volume of 200 µl of IBSA containing 10 µg of calf thymus DNA at 37°C for 1 hour. The [^3H]-methylated-DNA substrate (100 µl containing 6.7 µg of DNA and 100 fmol of 0^6-methylguanine) was added and incubation continued at 37° for 1 hour, until the reaction was completed. Following acid hydrolysis of the DNA as previously described^21 the [^3H]-methylated protein was recovered and quantitated by liquid scintillation counting. Samples were typically assayed in duplicate and experiments repeated several times. I50 is the concentration of inactivator required to produce a 50% reduction in ATase activity.

ATase [4] = test: Depletion of ATase activity in A375 tumour xenografts; assay type: in vivo, nude mice; details: 30 mg/kg, 2 or 24 hours after administration, Fig. 8, in words
Method: (§1) 0X6 OPT, England (OLAC mice). […] For this reason lower doses were administered.
A375M (human melanoma) cells were grown in DMEM containing 10% fetal bovine serum. The cells were prepared for in vivo inoculation by incubation with 0.01% trypsin.
Cells (10^6) in 100µl of PBS were injected subcutaneously into the right-hand flank of 8-10 week old nu/nu athymic mice. These cells were allowed to develop into a tumour for 3-4 weeks for passaging into experimental animals. Tumour blocks measuring 2mm x 2mm x 2mm were implanted subcutaneously on the right hand flank. These animals were ready for use in inactivator experiments in 7-10 days.

[5] = Toxicity of inactivator in combination with BCNU in xenograft-bearing mice (survival); assay type: in vivo, nude mice; details: Figs. 9-13, in words
Method: as §1
Xenograft tumour measurements were taken every 1-2 days by workers using digital calipers. Tumour volume was calculated using the formula (h x w x 1) π/6. The experimental animals were also weighed every 1-2 days. Measurements continued until tumours in the control animals reached the maximum allowable volume (i.e. 1cm x 1cm x 1cm).

[6] = 0.1mM in PBS (pH 7-7.2), read-out: T1/2(h) in PBS (converted)
[7] = 0.1mM in buffer I (1mM EDTA, 50mM Tris pH 8.3), read-out: T1/2(h) in Buffer I (converted)

Compound | half-life at 100 µM [1, 6] | half-life at 100 µM [1, 7] | IC50 (ATase [2]; Human WiDr cells, 2 hours at 37°C, read-out: Inactivation of ATase in Mammalian Cells I50(µM) Human WiDr) | IC50 (ATase [3]) | effectiveness in the in vitro ATase inactivation assay compared with BeG (ATase [3]) | IC50 (ATase [2]) | inactivating ATase in human melanoma xenografts grown in nude mice, compared with BeG (ATase [4]) | toxicity in combination with BCNU in nude mice [5]
Nc1nc(OCc2ccco2)c2nc[nH]c2n1 [B.4203, O^6-furfurylguanine] | 0.17 h | 0.3 h | 0.08 µM | 0.08 µM | not as effective as BeG | – | – | –
Nc1nc(OCc2cccs2)c2nc[nH]c2n1 [B.4205, O^6-thenylguanine] | 0.6 h | 1.2 h | – | 0.018 µM | considerably better | 0.02 µM | as effective as BeG | substantially less toxic; also recorded: very little effect
